Source: patent US20230286958A1, “PLASMA KALLIKREIN INHIBITORS” (Merck Sharp & Dohme LLC, priority 2020, published 2023)

Tests used:
Human plasma kallikrein = Human plasma kallikrein (Homo sapiens (Human), UniProt P03952); test: Kallikrein Assay (fluorogenic substrate Acetyl-K-P-R-AFC); type: biochemical; details: Plasma Kallikrein (PKal)
Method in brief: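 Ki is derived from IC50 with the Cheng-Prusoff equation, and IC50 from the inflection point of a four-parameter logistic curve. The rate of AFC release is read with 0.5 nM purified enzyme and […] substrate at room temperature or 37 °C.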

human Factor XIa = human Factor XIa (Homo sapiens (Human), UniProt P03951); test: Factor XIa Assay (fluorogenic substrate GPR-AFC); type: biochemical; details: Factor XIa (FXIa)
human Factor XIa, sequence (P03951 388-625 limits assumed): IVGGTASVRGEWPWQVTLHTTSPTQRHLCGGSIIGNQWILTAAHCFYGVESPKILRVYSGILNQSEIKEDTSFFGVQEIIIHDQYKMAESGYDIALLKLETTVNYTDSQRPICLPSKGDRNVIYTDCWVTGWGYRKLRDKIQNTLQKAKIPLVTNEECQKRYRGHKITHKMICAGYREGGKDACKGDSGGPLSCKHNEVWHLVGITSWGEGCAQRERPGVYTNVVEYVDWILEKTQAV
human Factor XIa, sequence (P03951 19-387 partner limits assumed): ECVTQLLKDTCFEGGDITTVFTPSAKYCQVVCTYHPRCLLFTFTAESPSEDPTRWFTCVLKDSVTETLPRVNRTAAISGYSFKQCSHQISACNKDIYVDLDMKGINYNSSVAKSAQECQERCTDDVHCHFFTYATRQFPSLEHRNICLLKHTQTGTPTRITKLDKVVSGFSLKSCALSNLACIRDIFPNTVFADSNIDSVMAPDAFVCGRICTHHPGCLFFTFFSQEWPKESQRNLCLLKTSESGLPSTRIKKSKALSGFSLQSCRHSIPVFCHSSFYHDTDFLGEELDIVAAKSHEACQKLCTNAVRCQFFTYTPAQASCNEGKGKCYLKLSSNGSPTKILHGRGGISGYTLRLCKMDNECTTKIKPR

Human plasma kallikrein, sequence (P03952 391-638): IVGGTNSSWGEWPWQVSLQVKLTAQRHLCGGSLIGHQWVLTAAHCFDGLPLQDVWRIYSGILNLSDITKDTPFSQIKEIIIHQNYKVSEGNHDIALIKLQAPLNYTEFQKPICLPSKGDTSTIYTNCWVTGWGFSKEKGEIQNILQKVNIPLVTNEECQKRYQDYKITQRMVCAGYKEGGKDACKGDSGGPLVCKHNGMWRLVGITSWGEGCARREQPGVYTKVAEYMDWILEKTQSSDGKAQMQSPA
Human plasma kallikrein, sequence (P03952 20-390 partner): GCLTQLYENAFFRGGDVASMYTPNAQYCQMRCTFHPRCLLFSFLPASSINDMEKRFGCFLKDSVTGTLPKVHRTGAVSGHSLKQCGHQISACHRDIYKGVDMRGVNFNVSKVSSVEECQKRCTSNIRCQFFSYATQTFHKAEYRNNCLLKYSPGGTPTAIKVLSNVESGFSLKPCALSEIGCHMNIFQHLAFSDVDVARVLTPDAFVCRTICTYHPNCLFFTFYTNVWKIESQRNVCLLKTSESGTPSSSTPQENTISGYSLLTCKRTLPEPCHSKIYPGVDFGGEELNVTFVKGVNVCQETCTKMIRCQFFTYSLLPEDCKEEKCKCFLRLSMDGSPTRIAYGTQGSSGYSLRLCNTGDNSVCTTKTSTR

IC50 (Human plasma kallikrein) [nM]	IC50 (human Factor XIa) [nM]	Structure (SMILES)
0.5	545	Cc1cc(C(C)n2cc(NC(=O)c3nc(-c4c(OC(F)F)ccc(Cl)c4F)cnc3C)cn2)cnc1N1C[C@H]2C[C@H]2C1=O (single isomer, unassigned) [Example 131, 6-(3-Chloro-6-(difluoromethoxy)-2-fluorophenyl)-3-methyl-N-(1-((S or R)-1-(5-methyl-6-((1R,5S)-2-oxo-3-azabicyclo[3.1.0]hexan-3-yl)pyridin-3-yl)ethyl)-1H-pyrazol-4-yl)pyrazine-2-carboxamide]
10	> 10000	CC(c1ccc(N2C[C@H]3C[C@H]3C2=O)cc1)n1cc(NC(=O)c2cncc(-c3c(C(F)F)ccc(Cl)c3F)n2)cn1 (mixture of isomers) [Example 69, 6-(3-Chloro-6-(difluoromethyl)-2-fluorophenyl)-N-(1-((S and R)-1-(4-((1R,5S)-2-oxo-3-azabicyclo[3.1.0]hexan-3-yl)phenyl)ethyl)-1H-pyrazol-4-yl)pyrazine-2-carboxamide]
18.6	7680	CC(c1cnc(N2CC3CC3C2=O)nc1)n1cc(NC(=O)c2cncc(-c3c(C(F)(F)F)ccc(Cl)c3F)n2)cn1 (single isomer, unassigned) [Example 70, 6-(3-Chloro-2-fluoro-6-(trifluoromethyl)phenyl)-N-(1-((S orR)-1-(2-((1R,5S or 1S,5R)-2-oxo-3-azabicyclo[3.1.0]hexan-3-yl)pyrimidin-5-yl)ethyl)-1H-pyrazol-4-yl)pyrazine-2-carboxamide]
2.8	8420	Cc1ncc(-c2c(C(F)F)ccc(Cl)c2F)nc1C(=O)Nc1cnn([C@H](C)c2cnc(N3C[C@H]4C[C@H]4C3=O)c(O)c2)c1 [Example 216, 6-(3-Chloro-6-(difluoromethyl)-2-fluorophenyl)-N-(1-((R)-1-(5-hydroxy-6-((1R,5S)-2-oxo-3-azabicyclo[3.1.0]hexan-3-yl)pyridin-3-yl)ethyl)-1H-pyrazol-4-yl)-3-methylpyrazine-2-carboxamide]
2.9	7300	Cc1ncc(-c2c(C(F)F)ccc(Cl)c2F)nc1C(=O)Nc1cnn(C(C)c2ncc(N3C[C@H]4C[C@H]4C3=O)cc2Cl)c1 (single isomer, unassigned) [Example 147, N-(1-((R or S)-1-(3-Chloro-5-((1R,5S)-2-oxo-3-azabicyclo[3.1.0]hexan-3-yl)pyridin-2-yl)ethyl)-1H-pyrazol-4-yl)-6-(3-chloro-6-(difluoromethyl)-2-fluorophenyl)-3-methylpyrazine-2-carboxamide]
1	> 10000	Cc1nc(C(C)n2cc(NC(=O)c3cncc(-c4c(C(F)F)ccc(Cl)c4F)n3)cn2)ncc1N1C[C@H]2C[C@H]2C1=O (single isomer, unassigned) [Example 3, 6-(3-Chloro-6-(difluoromethyl)-2-fluorophenyl)-N-(1-((S or R)-1-(4-methyl-5-((1R,5S)-2-oxo-3-azabicyclo[3.1.0]hexan-3-yl)pyrimidin-2-yl)ethyl)-1H-pyrazol-4-yl)pyrazine-2-carboxamide]
0.7	> 10000	Cc1nc(C(C)n2cc(NC(=O)c3cncc(-c4c(C(F)F)ccc(Cl)c4F)n3)cn2)ccc1N1C[C@H]2C[C@H]2C1=O (single isomer, unassigned) [Example 61, 6-(3-Chloro-6-(difluoromethyl)-2-fluorophenyl)-N-(1-((R or S)-1-(6-methyl-5-((1R,5S)-2-oxo-3-azabicyclo[3.1.0]hexan-3-yl)pyridin-2-yl)ethyl)-1H-pyrazol-4-yl)pyrazine-2-carboxamide]
15.2	2200	CC(c1cnc(N2C[C@H]3C[C@H]3C2=O)nc1CO)n1cc(NC(=O)c2cncc(-c3c(C(F)F)ccc(Cl)c3F)n2)cn1 (stereo in doubt) [Example 169, 6-(3-Chloro-6-(difluoromethyl)-2-fluorophenyl)-N-(1-(1-(4-(hydroxymethyl)-2-(2-oxo-3-azabicyclo[3.1.0]hexan-3-yl)pyrimidin-5-yl)ethyl)-1H-pyrazol-4-yl)pyrazine-2-carboxamide]
3.5	423	COc1cc(Cn2cc(NC(=O)c3cncc(-c4c(C(F)F)ccc(Cl)c4F)n3)cn2)cnc1N1C[C@H]2C[C@H]2C1=O [Example 49, 6-(3-Chloro-6-(difluoromethyl)-2-fluorophenyl)-N-(1-((5-methoxy-6-((1R,5S)-2-oxo-3-azabicyclo[3.1.0]hexan-3-yl)pyridin-3-yl)methyl)-1H-pyrazol-4-yl)pyrazine-2-carboxamide]
4.3	3210	Cc1ncc(-c2c(OC(F)F)ccc(Cl)c2F)nc1C(=O)Nc1cnn(C(C)c2cnc(N3C[C@H]4C[C@H]4C3=O)c(F)c2C)c1 (single isomer, unassigned) [Example 129, 6-(3-Chloro-6-(difluoromethoxy)-2-fluorophenyl)-N-(1-((S or R)-1-(5-fluoro-4-methyl-6-((1R,5S)-2-oxo-3-azabicyclo[3.1.0]hexan-3-yl)pyridin-3-yl)ethyl)-IH-pyrazol-4-yl)-3-methylpyrazine-2-carboxamide]
1.4	> 10000	Cc1cc(N2C[C@H]3C[C@H]3C2=O)ccc1C(C)n1cc(NC(=O)c2cncc(-c3c(C(F)F)ccc(Cl)c3F)n2)cn1 (single isomer, unassigned) [Example 98, 6-(3-Chloro-6-(difluoromethyl)-2-fluorophenyl)-N-(1-((S or R)-1-(2-methyl-4-((1R,5S)-2-oxo-3-azabicyclo[3.1.0]hexan-3-yl)phenyl)ethyl)-1H-pyrazol-4-yl)pyrazine-2-carboxamide]
5.5	2120	O=C(Nc1cnn(Cc2cnc(N3C[C@H]4C[C@H]4C3=O)c(F)c2)c1)c1cncc(-c2c(C(F)F)ccc(Cl)c2F)n1 [Example 50, 6-(3-Chloro-6-(difluoromethyl)-2-fluorophenyl)-N-(1-((5-fluoro-6-((1R,5S)-2-oxo-3-azabicyclo[3.1.0]hexan-3-yl)pyridin-3-yl)methyl)-1H-pyrazol-4-yl)pyrazine-2-carboxamide]
49.1	2880	Cc1cc(N2C[C@H]3C[C@H]3C2=O)ccc1C(C)n1cc(NC(=O)c2cncc(-c3c(C(F)F)ccc(Cl)c3F)n2)cn1 (single isomer, unassigned) [Example 99, 6-(3-Chloro-6-(difluoromethyl)-2-fluorophenyl)-N-(1-((R or S)-1-(2-methyl-4-((1R,5S)-2-oxo-3-azabicyclo[3.1.0]hexan-3-yl)phenyl)ethyl)-1H-pyrazol-4-yl)pyrazine-2-carboxamide]
1.8	445	Cc1cc(C(C)n2cc(NC(=O)c3nc(-c4c(C(F)F)ccc(Cl)c4F)cnc3C)cn2)nnc1N1C[C@H]2C[C@H]2C1=O (single isomer, unassigned) [Example 103, 6-(3-Chloro-6-(difluoromethyl)-2-fluorophenyl)-3-methyl-N-(1-((R or S)-1-(5-methyl-6-((1R,5S)-2-oxo-3-azabicyclo[3.1.0]hexan-3-yl)pyridazin-3-yl)ethyl)-1H-pyrazol-4-yl)pyrazine-2-carboxamide]
0.4	328	Cc1cc([C@H](C)n2cc(NC(=O)c3nc(-c4c(OC(F)F)ccc(Cl)c4F)cnc3C)cn2)nnc1N1C[C@H]2C[C@H]2C1=O [Example 39, 6-(3-Chloro-6-(difluoromethoxy)-2-fluorophenyl)-3-methyl-N-(1-((S)-1-(5-methyl-6-((1R,5S)-2-oxo-3-azabigyclo[3.1.0]hexan-3-yl)pyridazin-3-yl)ethyl)-1H-pyrazol-4-yl)pyrazine-2-carboxamide]
5.9	2520	Cc1cc(N2C[C@H]3C[C@H]3C2=O)ncc1C(C)n1cc(NC(=O)c2nc(-c3c(C(F)F)ccc(Cl)c3F)cnc2CO)cn1 (single isomer, unassigned) [Example 204, 6-(3-Chloro-6-(difluoromethyl)-2-fluorophenyl)-3-(hydroxymethyl)-N-(1-((R or S)-1-(4-methyl-6-((1R,5S)-2-oxo-3-azabicyclo[3.1.0]hexan-3-yl)pyridin-3-yl)ethyl)-1H-pyrazol-4-yl)pyrazine-2-carboxamide]
26.2	> 10000	Cc1ncc(-c2c(C(F)F)ccc(Cl)c2F)nc1C(=O)Nc1cnn(C(C)c2cnc(N3CCC(O)C3=O)nc2)c1 (single isomer, unassigned) [Example 87, 6-(3-Chloro-6-(difluoromethyl)-2-fluorophenyl)-N-(1-((S or R)-1-(2-((R or S)-3-hydroxy-2-oxopyrrolidin-1-yl)pyrimidin-5-yl)ethyl)-1H-pyrazol-4-yl)-3-methylpyrazine-2-carboxamide]
1	> 10000	O=C(Nc1cnn(Cc2ccc(N3C[C@H]4C[C@H]4C3=O)nc2)c1)c1cncc(-c2c(C(F)F)ccc(Cl)c2F)n1 [Example 9, 6-(3-Chloro-6-(difluoromethyl)-2-fluorophenyl)-N-(1-((6-((1R,5S)-2-oxo-3-azabicyclo[3.1.0]hexan-3-yl)pyridin-3-yl)methyl)-1H-pyrazol-4-yl)pyrazine-2-carboxamide]
1.1	1330	Cc1cc(C(C)n2cc(NC(=O)c3nc(-c4c(C(F)F)ccc(Cl)c4F)cnc3C(C)O)cn2)nnc1N1C[C@H]2C[C@H]2C1=O (single isomer, unassigned) [Example 230, 6-(3-Chloro-6-(difluoromethyl)-2-fluorophenyl)-3-((S or R)-1-hydroxyethyl)-N-(1-((S or R)-1-(5-methyl-6-((1R,5S)-2-oxo-3-azabicyclo[3.1.0]hexan-3-yl)pyridazin-3-yl)ethyl)-1H-pyrazol-4-yl)pyrazine-2-carboxamide]

Structure (SMILES)	IC50 (Human plasma kallikrein) [nM]	IC50 (human Factor XIa) [nM]
CC(c1cnc(N2C[C@H]3C[C@H]3C2=O)c(F)c1)n1cc(NC(=O)c2nc(-c3c(C(F)F)ccc(Cl)c3F)cnc2COC(C)(C)C)cn1 (single isomer, unassigned) [Example 143, 3-(tert-Butoxymethyl)-6-(3-chloro-6-(difluoromethyl)-2-fluorophenyl)-N-(1-((S or R)-1-(5-fluoro-6-((1R,5S)-2-oxo-3-azabicyclo[3.1.0]hexan-3-yl)pyridin-3-yl)ethyl)-1H-pyrazol-4-yl)pyrazine-2-carboxamide]	4.9	4310
